From patent US20220184034A1, “METHODS FOR TREATING CUTANEOUS METASTATIC CANCERS” (Adgero Biopharmaceuticals Holdings, Inc., priority 2020, published 2022)

Key:
Assay type in all cases: in vivo, patients
[1] = system: cutaneous lesions arising from either basal cell cancer, squamous cell cancer or CMBC; assay: Phase 1/2 dose escalation study of SnET2 PDT: acute lesion reaction grade at Week 1; conditions: Week 1 post-treatment
Experimental: Two Phase 1/2 studies established the clinical dosimetry. The first study was a dose escalation study that enrolled a total of 22 patients with cutaneous lesions arising from either basal cell cancer, squamous cell cancer or CMBC. A total of 213 lesions were treated using photosensitizer SnET2) doses ranging from 0.1-1.2 mg/kg, light doses of 100, 150 or 200 J/cm^2 and treatment timepoints of 24, 48, or 72 hours post-infusion. Two key measures were utilized in these studies, lesion reaction and lesion response. Lesion reaction was an acute characterization of the treatment effect that was performed out to 1 week post-treatment according to the following scale: • Grade 0=No visual erythema or edema • Grade 1=Faint erythema and/or slight edema • Grade 2=Moderate erythema and edema • Grade 3=Severe discoloration, edema, sloughing or eschar
A further analysis was undertaken to explore the relationship between the acute lesion reaction and the lesion response. […] Following are the results from patients who were scored for lesion reaction at Week 1 post-treatment and who received a drug dose of 0.8 mg/kg or higher. […] For the 0.8 mg/kg cases, only 5 of the 37 lesions (14%) received the highest lesion reaction score. In the case of the 1.2 mg/kg dose group, the percentage of lesions with the maximum lesion reaction score, 13 of 22 (59%), was substantially higher.

CMBC lesions [2] = assay: Four phase 2/3 studies of SnET2 PDT: lesion treatment response; conditions: 1.2 mg/kg; for Responders / Response Rate of Evaluable Lesions: 200 J/cm^2, ~24 h, lesions larger than 1 cm; for lesion response rate: 200 J/cm^2
Experimental: (§1) A factor that impacts clinical outcome is the time delay required for post-treatment effects to resolve. This factor is observed in the results from four subsequent phase 2/3 studies of CMBC lesions using a fixed drug dose of 1.2 mg/kg and a fixed light dose of 200 J/cm^2 administered at approximately 24 hours post-infusion. In these studies lesions were first scored for lesion reaction and then scored for lesion treatment response after the lesion reaction had resolved. In the case of lesion reaction scoring, the reaction was first assessed by the investigator at approximately 4-week intervals and assigned a Reaction Score according to the following defined terms: • 0=No erythema, edema or residual eschar • 1=Mild (faint) erythema and/or slight edema present • 2=Moderate erythema and edema present • 3=Severe erythema and edema present • 4=Sloughing, ulceration, and/or eschar present • 5=Eschar requiring debridement
(§2) Once a lesion scored a Reaction Score of 0 or 1 it was deemed suitably healed for evaluation, at which time its treatment response was quantified by visual measurement of the two longest dimensions. In those cases where the patient left the study before a reaction score of 0-1 was reached, those lesions were classified as not evaluable.
(§3) An analysis conducted of the median time to lesion evaluation (time to reach a reaction score of 0 or 1) in these same four phase 2/3 CMBC trials indicates the time delay for post-treatment effects to resolve was closely associated with the acute (week 1-2 post-treatment) lesion reaction score, with higher acute reaction scores being associated with a longer time to lesion evaluation, consistent with a more severe treatment reaction requiring a longer time to resolve. […] Because larger lesions are most likely to be clinically relevant, this table only includes those lesions from the same four CMBC phase 2/3 trials that had baseline dimensions larger than 1 cm.

CMBC lesions [3] = assay: Four phase 2/3 studies of SnET2 PDT: lesion reaction score and time to lesion evaluation; conditions: 1.2 mg/kg; for Median Evaluable Week / Total with Max Reaction During Trial ≥4: 200 J/cm^2, ~24 h, lesions larger than 1 cm; for median time to evaluation: 200 J/cm^2
Experimental: Subsequent studies were conducted with dose parameters of 1.2 mg/kg of photosensitizer, 200 J/cm^2 of light, and 24 hours post administration as a treatment timepoint.
as §1, §2, §3

[4] = acute lesion reaction score 0-1
[5] = acute lesion reaction score 2-3
[6] = acute lesion reaction score 4-5

tin ethyl etiopurpurin [SnET2]
% with Max Rx Score at Week 1 ([1]; 0.8 mg/kg, 100 J/cm^2): 0% | Total with Max Rx Score at Week 1 ([1]; 0.8 mg/kg, 100 J/cm^2): 0 | % with Max Rx Score at Week 1 ([1]; 0.8 mg/kg, 150 J/cm^2): 7% | Total with Max Rx Score at Week 1 ([1]; 0.8 mg/kg, 150 J/cm^2): 1 | % with Max Rx Score at Week 1 ([1]; 0.8 mg/kg, 200 J/cm^2): 27% | Total with Max Rx Score at Week 1 ([1]; 0.8 mg/kg, 200 J/cm^2): 4 | lesions with the highest lesion reaction score ([1]; 0.8 mg/kg): 5 of the 37 | percentage of lesions with the highest lesion reaction score ([1]; 0.8 mg/kg): 14% | % with Max Rx Score at Week 1 ([1]; 1.0 mg/kg, 100 J/cm^2): 0% | Total with Max Rx Score at Week 1 ([1]; 1.0 mg/kg, 100 J/cm^2): 0 | % with Max Rx Score at Week 1 ([1]; 1.0 mg/kg, 150 J/cm^2): 0% | Total with Max Rx Score at Week 1 ([1]; 1.0 mg/kg, 150 J/cm^2): 0 | % with Max Rx Score at Week 1 ([1]; 1.0 mg/kg, 200 J/cm^2): 0% | Total with Max Rx Score at Week 1 ([1]; 1.0 mg/kg, 200 J/cm^2): 0 | % with Max Rx Score at Week 1 ([1]; 1.2 mg/kg, 100 J/cm^2): 33% | Total with Max Rx Score at Week 1 ([1]; 1.2 mg/kg, 100 J/cm^2): 2 | % with Max Rx Score at Week 1 ([1]; 1.2 mg/kg, 150 J/cm^2): 78% | Total with Max Rx Score at Week 1 ([1]; 1.2 mg/kg, 150 J/cm^2): 7 | % with Max Rx Score at Week 1 ([1]; 1.2 mg/kg, 200 J/cm^2): 57% | Total with Max Rx Score at Week 1 ([1]; 1.2 mg/kg, 200 J/cm^2): 4 | lesions with the maximum lesion reaction score ([1]; 1.2 mg/kg): 13 of 22 | percentage of lesions with the maximum lesion reaction score ([1]; 1.2 mg/kg): 59% | Responders (CMBC lesions [2]; [4]): 48 | Response Rate of Evaluable Lesions (CMBC lesions [2]; [4]): 63% | Responders (CMBC lesions [2]; [5]): 168 | Response Rate of Evaluable Lesions (CMBC lesions [2]; [5]): 81% | Responders (CMBC lesions [2]; [6]): 179 | Response Rate of Evaluable Lesions (CMBC lesions [2]; [6]): 88% | lesion response rate (CMBC lesions [2]; acute lesion reactions of 2-3): 81% | lesion response rate (CMBC lesions [2]; acute reactions of 4-5): 88% | healing following treatment (CMBC lesions [3]; 200 J/cm^2, 24 hours post administration): slow healing following treatment was observed | Median Evaluable Week (CMBC lesions [3]; [4]): 1 Week | Total with Max Reaction During Trial ≥4 (CMBC lesions [3]; [4]): 14 | Median Evaluable Week (CMBC lesions [3]; [5]): 6 Week | Total with Max Reaction During Trial ≥4 (CMBC lesions [3]; [5]): 165 | Median Evaluable Week (CMBC lesions [3]; [6]): 12 Week | Total with Max Reaction During Trial ≥4 (CMBC lesions [3]; [6]): 496 | median time to evaluation (CMBC lesions [3]; acute lesion reactions of 2-3): 6 weeks | median time to evaluation (CMBC lesions [3]; acute reactions of 4-5 (eschar or ulceration)): 12 weeks
